What follows are compounds tested against T1, human NOX4 (Homo sapiens, UniProt Q9NPH5) (assay: Amplex Red activity assay (cellular H2O2 formation in hNOX4 T-REx-293 cells)). Settings: tet-induced 24 h, extracellular H2O2 by Amplex Red, 60 min 25° C., geometric mean if determined several times.
T1 construct: The full-length human NOX4 (NM_016931.3) transcript was cloned; expressed in transfected cells
T1 sequence (Q9NPH5 1-578): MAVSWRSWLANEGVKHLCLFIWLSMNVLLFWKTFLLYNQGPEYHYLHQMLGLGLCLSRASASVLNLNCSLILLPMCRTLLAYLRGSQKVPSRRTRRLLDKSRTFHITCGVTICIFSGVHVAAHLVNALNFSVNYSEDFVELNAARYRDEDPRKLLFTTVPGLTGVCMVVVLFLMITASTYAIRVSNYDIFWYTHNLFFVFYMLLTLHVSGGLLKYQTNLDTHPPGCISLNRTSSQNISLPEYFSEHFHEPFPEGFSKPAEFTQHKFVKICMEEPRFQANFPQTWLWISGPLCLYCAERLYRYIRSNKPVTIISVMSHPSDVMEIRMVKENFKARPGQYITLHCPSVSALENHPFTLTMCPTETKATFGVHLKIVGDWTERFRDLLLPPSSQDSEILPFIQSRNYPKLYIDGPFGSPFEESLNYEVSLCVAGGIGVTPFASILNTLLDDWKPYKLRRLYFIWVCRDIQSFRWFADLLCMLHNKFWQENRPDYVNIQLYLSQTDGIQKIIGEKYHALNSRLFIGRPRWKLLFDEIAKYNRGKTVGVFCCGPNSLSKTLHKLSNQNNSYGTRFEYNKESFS
T1 sequence (P13498 1-195 partner): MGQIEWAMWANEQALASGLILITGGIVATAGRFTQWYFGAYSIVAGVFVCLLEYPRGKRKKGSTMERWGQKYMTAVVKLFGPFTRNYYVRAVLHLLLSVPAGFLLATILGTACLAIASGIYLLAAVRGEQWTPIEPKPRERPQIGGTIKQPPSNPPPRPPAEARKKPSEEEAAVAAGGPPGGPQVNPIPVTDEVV
Format: cell-based
How it was run: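 Tet-induced (1 μg/mL, 24 h) HEK293 T-REx cells stably expressing full-length human NOX4, 20 000 cells/well, exposed to compounds (10 concentrations, 50 μM to 100 nM; 1.25% DMSO) for 60 min at 25°C. Extracellular H2O2 detected by Amplex Red resorufin fluorescence (ex 550/em 600 nm) versus vehicle; IC50 calculated.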
For `CN1CCOc2ccc(C(=O)Nc3ccc4oc(N5CCCC56COC6)nc4c3)cc21` [Example 184, 4-Methyl-3,4-dihydro-2H-benzo[1,4]oxazine-6-carboxylic acid [2-(2-oxa-5-aza-spiro[3.4]oct-5-yl)-benzooxazol-5-yl]-amide], the IC50 was 1890 nM. In the case of `O=C(Nc1ccc2c(c1)OCCO2)c1ccc2sc(N3CCCCC3)nc2c1` [Example 207, 2-Piperidin-1-yl-benzothiazole-5-carboxylic acid (2,3-dihydro-benzo[1,4]dioxin-6-yl)-amide], the IC50 is reported as 12800 nM. With `O=C(Nc1ccc2oc(N3CC(c4ccccn4)C3)nc2c1)c1ccc2c(c1)CCO2` [Example 120, 2,3-Dihydro-benzofuran-5-carboxylic acid [2-(3-pyridin-2-yl-azetidin-1-yl)-benzooxazol-5-yl]-amide] the IC50 was 2340 nM. With `O=C(Nc1ccc2oc(N3CC[C@@H](O)C3)nc2c1)c1ccc2c(c1)CCO2` [Example 45, 2,3-Dihydro-benzofuran-5-carboxylic acid [2-((R)-3-hydroxy-pyrrolidin-1-yl)-benzooxazol-5-yl]-amide] the IC50 was 573 nM. In the case of `CN(C)C1(C)CN(c2nc3cc(NC(=O)c4ccc5c(c4)CCO5)ccc3o2)C1` [Example 73, 2,3-Dihydro-benzofuran-5-carboxylic acid [2-(3-dimethylamino-3-methyl-azetidin-1-yl)-benzooxazol-5-yl]-amide], the IC50 is reported as 4100 nM. Compound `CN1CCN(c2nc3cc(NC(=O)c4ccc5c(c4)CCO5)ccc3o2)CC1` [Example 4, 2,3-Dihydro-benzofuran-5-carboxylic acid [2-(4-methyl-piperazin-1-yl)-benzooxazol-5-yl]-amide] has an IC50 of 967 nM. For `O=C(Nc1ccc2oc(N3CCC34CCOC4)nc2c1)c1ccc2c(c1)CCCO2` (centres unmarked) [Example 144, Chroman-6-carboxylic acid [2-(6-oxa-1-aza-spiro[3.4]oct-1-yl)-benzooxazol-5-yl]-amide], the IC50 was 1540 nM. `CC1(O)CN(C2CN(c3nc4cc(NC(=O)c5ccc6c(c5)CCO6)ccc4o3)C2)C1` [Example 20, 2,3-Dihydro-benzofuran-5-carboxylic acid [2-(3-hydroxy-3-methyl-[1,3′]biazetidinyl-1′-yl)-benzooxazol-5-yl]-amide] gave an IC50 of 1400 nM. `O=C(Nc1ccc2oc(N3CCCC4(CCO4)C3)nc2c1)c1ccc2c(c1)CCO2` (centres unmarked) [Example 25, 2,3-Dihydro-benzofuran-5-carboxylic acid [2-(1-oxa-6-aza-spiro[3.5]non-6-yl)-benzooxazol-5-yl]-amide] gave an IC50 of 804 nM. Compound `O=C(Nc1ccc2oc(N3CC(F)(F)C3)nc2c1)c1ccc2c(c1)CCO2` [Example 8, 2,3-Dihydro-benzofuran-5-carboxylic acid [2-(3,3-difluoro-azetidin-1-yl)-benzooxazol-5-yl]-amide] has an IC50 of 1890 nM. With `CN1CCCC2(C1)CN(c1nc3cc(NC(=O)c4ccc5c(c4)CCO5)ccc3o1)C2` [Example 33, 2,3-Dihydro-benzofuran-5-carboxylic acid [2-(6-methyl-2,6-diaza-spiro[3.5]non-2-yl)-benzooxazol-5-yl]-amide] the IC50 was 2140 nM. With `COC1CCN(c2nc3cc(NC(=O)c4ccc5c(c4)CCO5)ccc3o2)CC1` [Example 11, 2,3-Dihydro-benzofuran-5-carboxylic acid [2-(4-methoxy-piperidin-1-yl)-benzooxazol-5-yl]-amide] the IC50 was 358 nM. For `O=C(Nc1ccc2oc(N3CCOCC3)nc2c1)c1ccc2c(c1)CCCO2` [Example 155, Chroman-6-carboxylic acid (2-morpholin-4-yl-benzooxazol-5-yl)-amide], the IC50 was 756 nM. For `O=C(Nc1ccc2oc(N3CCCC4(COC4)C3)nc2c1)c1ccc2c(c1)CCCO2` [Example 154, Chroman-6-carboxylic acid [2-(2-oxa-6-aza-spiro[3.5]non-6-yl)-benzooxazol-5-yl]-amide], the IC50 was 1130 nM. `O=C(Nc1ccc2oc(N3CC4(C3)CS(=O)(=O)C4)nc2c1)c1ccc2c(c1)CCO2` [Example 70, 2,3-Dihydro-benzofuran-5-carboxylic acid [2-(2,2-dioxo-2l6-thia-6-aza-spiro[3.3]hept-6-yl)-benzooxazol-5-yl]-amide] gave an IC50 of 889 nM. Work on `CN(C)C1CN(c2nc3cc(NC(=O)c4ccc5c(c4)CCO5)ccc3o2)C1` [Example 69, 2,3-Dihydro-benzofuran-5-carboxylic acid [2-(3-dimethylamino-azetidin-1-yl)-benzooxazol-5-yl]-amide] yielded an IC50 of 1930 nM. For `CN1CCN(c2nc3cc(C(=O)Nc4ccc5c(c4)OCO5)ccc3s2)CC1` [Example 211, 2-(4-Methyl-piperazin-1-yl)-benzothiazole-5-carboxylic acid benzo[1,3]dioxol-5-ylamide], the IC50 was 8900 nM. With `O=C(Nc1ccc2sc(N3CCCC(F)(F)C3)nc2c1)c1ccc2c(c1)CCO2` [Example 89, 2,3-Dihydro-benzofuran-5-carboxylic acid [2-(3,3-difluoro-piperidin-1-yl)-benzothiazol-5-yl]-amide] the IC50 was 1920 nM. `O=C(Nc1ccc2oc(N3CCC34CCOCC4)nc2c1)c1ccc2c(c1)OCO2` [Example 126, Benzo[1,3]dioxole-5-carboxylic acid [2-(7-oxa-1-aza-spiro[3.5]non-1-yl)-benzooxazol-5-yl]-amide] gave an IC50 of 757 nM. In the case of `O=C(Nc1ccc2oc(N3CCS(=O)(=O)CC3)nc2c1)c1ccc2c(c1)CCCO2` [Example 40, Chroman-6-carboxylic acid [2-(1,1-dioxo-thiomorpholin-4-yl)-benzooxazol-5-yl]-amide], the IC50 is reported as 812 nM. `CN1CCN(c2nc3cc(NC(=O)c4ccc5c(c4)CCCO5)ccc3o2)CC1` [Example 156, Chroman-6-carboxylic acid [2-(4-methyl-piperazin-1-yl)-benzooxazol-5-yl]-amide] showed an IC50 of 1790 nM. `CN1CCOc2ccc(C(=O)Nc3ccc4oc(N5CCC56COC6)nc4c3)cc21` [Example 180, 4-Methyl-3,4-dihydro-2H-benzo[1,4]oxazine-6-carboxylic acid [2-(6-oxa-1-aza-spiro[3.3]hept-1-yl)-benzooxazol-5-yl]-amide] showed an IC50 of 1770 nM. With `O=C(Nc1ccc2c(c1)OCO2)c1ccc2sc(N3CCC34COC4)nc2c1` [Example 209, 2-(6-Oxa-1-aza-spiro[3.3]hept-1-yl)-benzothiazole-5-carboxylic acid benzo[1,3]dioxol-5-ylamide] the IC50 was 1500 nM. `CCN(CC)c1nc2cc(NC(=O)c3ccc4c(c3)CCO4)ccc2s1` [Example 85, 2,3-Dihydro-benzofuran-5-carboxylic acid (2-diethylamino-benzothiazol-5-yl)-amide] gave an IC50 of 1650 nM. In the case of `CN(c1nc2cc(NC(=O)c3ccc4c(c3)CCO4)ccc2o1)C1COC1` [Example 57, 2,3-Dihydro-benzofuran-5-carboxylic acid [2-(methyl-oxetan-3-yl-amino)-benzooxazol-5-yl]-amide], the IC50 is reported as 681 nM. Compound `CC(C)(C)OC(=O)C1CN(c2nc3cc(NC(=O)c4ccc5c(c4)CCO5)ccc3o2)C1` [Example 37, 1-{5-[(2,3-Dihydro-benzofuran-5-carbonyl)-amino]-benzooxazol-2-yl}-azetidine-3-carboxylic acid tert-butyl ester] has an IC50 of 841 nM. Work on `COC1CCN(c2nc3cc(C(=O)Nc4ccc5c(c4)OCCO5)ccc3s2)CC1` [Example 205, 2-(4-Methoxy-piperidin-1-yl)-benzothiazole-5-carboxylic acid (2,3-dihydro-benzo[1,4]dioxin-6-yl)-amide] yielded an IC50 of 26800 nM. `CN1CCC2(CC1)CN(c1nc3cc(NC(=O)c4ccc5c(c4)CCO5)ccc3o1)C2` [Example 68, 2,3-Dihydro-benzofuran-5-carboxylic acid [2-(7-methyl-2,7-diaza-spiro[3.5]non-2-yl)-benzooxazol-5-yl]-amide] showed an IC50 of 1790 nM. `CN1CCOc2ccc(C(=O)Nc3ccc4oc(N5CCCC6(COC6)C5)nc4c3)cc21` [Example 189, 4-Methyl-3,4-dihydro-2H-benzo[1,4]oxazine-6-carboxylic acid [2-(2-oxa-6-aza-spiro[3.5]non-6-yl)-benzooxazol-5-yl]-amide] showed an IC50 of 2190 nM. In the case of `O=C(Nc1ccc2sc(N3CC[C@H](O)C3)nc2c1)c1ccc2c(c1)CCO2` [Example 98, (S)—N-(2-(3-hydroxypyrrolidin-1-yl)benzo[d]thiazol-5-yl)-2,3-dihydrobenzofuran-5-carboxamide], the IC50 is reported as 2530 nM. `O=C(Nc1ccc2oc(N3CCCCC3)nc2c1)c1ccc2c(c1)OCCO2` [Example 166, 2,3-Dihydro-benzo[1,4]dioxine-6-carboxylic acid (2-piperidin-1-yl-benzooxazol-5-yl)-amide] was tested, and the IC50 was 1500 nM. With `O=C(Nc1ccc2sc(N3CCCC3)nc2c1)c1ccc2c(c1)CCO2` [Example 84, 2,3-Dihydro-benzofuran-5-carboxylic acid (2-pyrrolidin-1-yl-benzothiazol-5-yl)-amide] the IC50 was 1320 nM.
